From US20250197425A1, “2,6,9-TRISUBSTITUTED PURINES” (ASTRAZENECA AB, priority 2022, published 2025)
Values after ≈ are worked out from the molar mass of the structure shown.

How the values were obtained:
CDK2:CCNE1 = CDK2:CCNE1 (Homo sapiens (Human), UniProt P24941); test: NanoBRET assay in MCF-7 cells, CDK2; type: cell-based; conditions: transfected MCF-7 cells, 2 hours, n = 1 or average
Method in brief: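 In live MCF-7 cells, compound added followed by NanoBRET TE Tracer K-9 (stock 200 μM) for CDK2, 2 h at 37° C, 5% CO2.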

CDK1:CCNB1 = CDK1:CCNB1 (Homo sapiens (Human), UniProt P06493); test: NanoBRET assay in MCF-7 cells, CDK1; type: cell-based; conditions: NanoBRET, transfected MCF-7 cells, 2 hours; n = 1 or average; read-out: CDK1 IC50
Chain of CDK1:CCNB1 (P06493 whole entry): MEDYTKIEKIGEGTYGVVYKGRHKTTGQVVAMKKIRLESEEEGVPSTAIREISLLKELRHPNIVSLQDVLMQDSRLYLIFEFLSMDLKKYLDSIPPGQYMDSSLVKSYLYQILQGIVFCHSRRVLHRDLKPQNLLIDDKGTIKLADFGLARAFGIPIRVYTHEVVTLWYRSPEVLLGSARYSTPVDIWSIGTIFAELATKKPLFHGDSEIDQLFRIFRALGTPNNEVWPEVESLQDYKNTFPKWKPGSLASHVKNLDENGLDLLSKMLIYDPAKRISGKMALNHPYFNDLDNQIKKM
Chain of CDK1:CCNB1 (P14635 whole entry partner): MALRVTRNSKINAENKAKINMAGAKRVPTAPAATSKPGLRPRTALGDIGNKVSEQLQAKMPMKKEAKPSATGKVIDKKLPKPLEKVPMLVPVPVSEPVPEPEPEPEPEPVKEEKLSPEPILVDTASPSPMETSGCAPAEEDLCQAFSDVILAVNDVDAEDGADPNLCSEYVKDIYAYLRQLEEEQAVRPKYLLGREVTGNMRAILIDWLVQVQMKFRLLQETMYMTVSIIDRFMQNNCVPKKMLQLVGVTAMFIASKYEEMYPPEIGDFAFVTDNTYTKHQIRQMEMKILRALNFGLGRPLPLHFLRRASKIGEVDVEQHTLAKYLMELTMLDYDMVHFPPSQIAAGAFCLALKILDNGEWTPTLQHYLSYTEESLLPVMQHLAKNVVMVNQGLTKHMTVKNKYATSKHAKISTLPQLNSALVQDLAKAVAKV
Method in brief: (§1)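 Intracellular target engagement was measured by NanoBRET ratio (460 nm/610 nm) in live MCF-7 cells transiently carrying CDK4:CCND1 (Tracer K-7, 100 μM stock) or CDK1:CCNB1 (Tracer K-9, 400 μM stock).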

CDK4:CCND1 = CDK4:CCND1 (Homo sapiens (Human), UniProt P11802); test: NanoBRET assay in MCF-7 cells, CDK4; type: cell-based; conditions: NanoBRET, transfected MCF-7 cells, 2 hours; n = 1 or average; read-out: CDK4 IC50
Chain of CDK4:CCND1 (P11802 whole entry): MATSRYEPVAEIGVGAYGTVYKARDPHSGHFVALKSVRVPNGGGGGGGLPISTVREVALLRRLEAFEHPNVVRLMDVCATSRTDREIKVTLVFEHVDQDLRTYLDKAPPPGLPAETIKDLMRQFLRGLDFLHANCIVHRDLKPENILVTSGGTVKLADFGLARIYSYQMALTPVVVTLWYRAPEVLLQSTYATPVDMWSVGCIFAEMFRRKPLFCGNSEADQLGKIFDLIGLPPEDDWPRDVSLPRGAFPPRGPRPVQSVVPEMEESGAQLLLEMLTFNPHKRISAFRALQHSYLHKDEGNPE
Chain of CDK4:CCND1 (P24385 whole entry partner): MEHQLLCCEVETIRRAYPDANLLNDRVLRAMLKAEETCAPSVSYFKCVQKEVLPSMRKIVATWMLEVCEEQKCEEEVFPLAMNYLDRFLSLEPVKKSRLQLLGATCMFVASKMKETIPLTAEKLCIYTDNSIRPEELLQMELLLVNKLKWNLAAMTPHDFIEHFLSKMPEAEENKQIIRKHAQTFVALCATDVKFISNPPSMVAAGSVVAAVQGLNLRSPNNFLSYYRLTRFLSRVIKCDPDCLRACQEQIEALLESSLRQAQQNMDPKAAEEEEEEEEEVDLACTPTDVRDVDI
Method in brief: as §1

[1] = test system: NPM phosphorylation (Thr199, CDK2-cyclin E complex); test: NPM phosphorylation imaging assay in MCF-7 cells; type: cell-based; conditions: Homo sapiens, 4N DNA cells
Method in brief: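 MCF-7 cells were fixed, permeabilised and immunostained, then imaged for phospho-NPM (Thr199), a CDK2-cyclin E site. Analysis was gated on 4N-DNA cells by Hoechst staining. Signals were normalised to controls and fitted for IC50.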

[2] = test system: POLR2A Ser2 phosphorylation (CDK9); test: POLR2A Ser2 phosphorylation imaging assay in MCF-7 cells; type: cell-based; conditions: Homo sapiens, MCF7, 2 h, MCF-7 cells, 2 hours; read-out: POLR2A Ser2 phosphorylation IC50
Method in brief: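 MCF-7 cells were fixed, permeabilised and immunostained for POLR2A phospho-Ser2, then imaged by high-content microscopy. Levels were normalised to controls and IC50 values derived.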

MCF-7 cells = test: Cellular proliferation EdU assay, MCF-7; type: cell-based; conditions: Homo sapiens, MCF7, 48 h, EdU assay, two days; read-out: MCF-7 IC50
Method in brief: (§2)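 MCF-7 (800 cells/well) and OVCAR3 (1200 cells/well) in RPMI with 10% FBS exposed to compounds for two days at 37 °C.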

OVCAR3 cells = test: Cellular proliferation EdU assay, OVCAR3; type: cell-based, human; conditions: Homo sapiens, OVCAR-3, 48 h, EdU assay, two days; read-out: OVCAR3 IC50
Method in brief: as §2

[3] = CLint assessment in human liver microsomes (HLM); type: in vitro ADME; conditions: 1 μM
Description: After a preincubation with NADPH for 8 minutes, reactions were initiated through the addition of the test compound (final volume 250 μl) and incubated at 37° C. in a water bath for 30 minutes. […] Samples were shaken at 800 rpm for 2 minutes and centrifuged at 4000 rpm for 20 minutes at 4° C. to pellet precipitated protein. The supernatant fraction was diluted 1:5 with deionized water, shaken at 1000 rpm for 2 minutes, and further diluted 1:1 with deionized water. Samples were analyzed by LC-MS/MS. The t1/2 and the CLint of the compounds incubated in the LM, HLM, and HμREL assays as described above were calculated according to the following equations: […] where V (μl/×10^6 cells or mg protein) is the incubation volume (μl) divided by the number of cells (×10^6) or microsomal protein content (mg) in the incubation.

[4] = Aqueous thermodynamic solubility, shake-flask; type: physicochemical; conditions: aqueous phosphate buffer, 25 °C, pH 7.4, aqueous buffer, thermodynamic from solid, phosphate buffer 0.1 M, pH 7.4, 24 hours
Method in brief: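 After 24 h stirring at 25° C. in pH 7.4 phosphate buffer (0.1 M), solid-free supernatant from two centrifugations was quantified by UPLC/MS/MS after dilution in water. Compound was added as dried material after DMSO removal.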

SMILES | IC50 (CDK2:CCNE1) | IC50 (CDK1:CCNB1) | IC50 (CDK4:CCND1) | IC50 ([1]; MCF7, 2 h) | IC50 [2] | IC50 (MCF-7 cells) | IC50 (OVCAR3 cells) | HLM CLint [3] | solubility at 24 h [4] | IC50 ([1]; MCF7, 2 hours)
CC[C@H](Nc1nc(N[C@@H]2CN(S(=O)(=O)c3ncc[nH]3)C[C@H]2F)c2ncn(C)c2n1)[C@@H](C)O (relative stereo) [Example 56, (2R,3S)-3-((6-(((3R*,4R*)-1-((1H-imidazol-2-yl)sulfonyl)-4-fluoropyrrolidin-3-yl)amino)-9-methyl-9H-purin-2-yl)amino)pentan-2-ol] | 69 nM | 1500 nM | 22000 nM | 299 nM | 23900 nM | 1180 nM | 519 nM | 39.8 µL/min/mg | > 1000 µM | –
CC[C@H](Nc1nc(N[C@H]2CCN(S(=O)(=O)c3cnn(C)c3)C2)c2ncn(C(C)C)c2n1)[C@@H](C)O [Example 31, (2R,3S)-3-((9-isopropyl-6-(((S)-1-((1-methyl-1H-pyrazol-4-yl)sulfonyl)pyrrolidin-3-yl)amino)-9H-purin-2-yl)amino)pentan-2-ol] | 39 nM | 6290 nM | > 29700 nM | – | > 30000 nM | 3160 nM | 964 nM | 154 µL/min/mg | > 1000 µM | 1050 nM
CC(C)[C@H](CO)Nc1nc(N[C@H]2CCN(S(=O)(=O)C3CC3)C2)c2ncn(C(C)C)c2n1 [Example 27, (R)-2-((6-(((S)-1-(cyclopropylsulfonyl)pyrrolidin-3-yl)amino)-9-isopropyl-9H-purin-2-yl)amino)-3-methylbutan-1-ol] | 11 nM | 1420 nM | 3400 nM | – | > 30000 nM | 839 nM | 337 nM | >300 µL/min/mg | 39.8 µM (≈ 18 µg/mL) | 267 nM
CC[C@H](Nc1nc(N[C@@H]2CN(S(=O)(=O)NC)C[C@H]2F)c2ncn(CC)c2n1)[C@@H](C)O (relative stereo) [Example 52, (3R*,4R*)-3-((9-ethyl-2-(((2R,3S)-2-hydroxypentan-3-yl)amino)-9H-purin-6-yl)amino)-4-fluoro-N-methylpyrrolidine-1-sulfonamide] | 21 nM | 1200 nM | 16800 nM | 151 nM | 11100 nM | 1020 nM | 252 nM | 21.1 µL/min/mg | 300 µM (≈ 133 µg/mL) | –
CC[C@H](Nc1nc(N[C@H]2CCN(S(N)(=O)=O)C2)c2ncn(CC)c2n1)[C@@H](C)O [Example 9, (S)-3-((9-ethyl-2-(((2R,3S)-2-hydroxypentan-3-yl)amino)-9H-purin-6-yl)amino)pyrrolidine-1-sulfonamide] | 100 nM | 2210 nM | 20200 nM | 432 nM | > 30000 nM | 1060 nM | 486 nM | 13.4 µL/min/mg | > 1000 µM | –
CCNS(=O)(=O)N1CC[C@H](Nc2nc(N[C@@H](CO)CC3CC3)nc3c2ncn3CC)C1 (relative stereo) [Example 58, (S)-3-((2-(((R*)-1-cyclopropyl-3-hydroxypropan-2-yl)amino)-9-ethyl-9H-purin-6-yl)amino)-N-ethylpyrrolidine-1-sulfonamide] | 17 nM | 671 nM | 1700 nM | 137 nM | > 30000 nM | 874 nM | 431 nM | 202 µL/min/mg | 51.9 µM (≈ 23.5 µg/mL) | –
CCn1cnc2c(N[C@H]3CCN(S(=O)(=O)NC)C3)nc(N[C@@H](CC(F)(F)F)[C@@H](C)O)nc21 (relative stereo) [Example 21, (S)-3-((9-ethyl-2-(((3S*,4R*)-1,1,1-trifluoro-4-hydroxypentan-3-yl)-amino)-9H-purin-6-yl)amino)-N-methylpyrrolidine-1-sulfonamide] | 49 nM | 3830 nM | > 29700 nM | – | > 30000 nM | 1450 nM | 578 nM | 34.1 µL/min/mg | 606 µM (≈ 291 µg/mL) | 326 nM
CCn1cnc2c(N[C@H]3CCN(S(=O)(=O)NC)C3)nc(-c3cccc4c3CNC4=O)nc21 [Example 1, (S)-3-((9-ethyl-2-(1-oxoisoindolin-4-yl)-9H-purin-6-yl)amino)-N-methylpyrrolidine-1-sulfonamide] | 17 nM | 236 nM | 11900 nM | 551 nM | 13300 nM | 2000 nM | 270 nM | >300 µL/min/mg | 7 µM (≈ 3.2 µg/mL) | –

More lines, main results first:

IC50 (CDK2:CCNE1) | IC50 (CDK1:CCNB1) | IC50 (CDK4:CCND1) | IC50 ([1]; MCF7, 2 h) | IC50 [2] | IC50 (MCF-7 cells) | IC50 (OVCAR3 cells) | HLM CLint [3] | solubility at 24 h [4] | SMILES | IC50 ([1]; MCF7, 2 hours)
37 nM | 1690 nM | 11400 nM | 337 nM | > 30000 nM | 1780 nM | 950 nM | 35.9 µL/min/mg | > 1000 µM | CCNS(=O)(=O)N1CC[C@H](Nc2nc(N[C@@H](C)C(C)(C)O)nc3c2ncn3CC)C1 (relative stereo) [Example 59, (S)—N-ethyl-3-((9-ethyl-2-(((R*)-3-hydroxy-3-methylbutan-2-yl)-amino)-9H-purin-6-yl)amino)pyrrolidine-1-sulfonamide] | –
6 nM | 98 nM | 1000 nM | 41 nM | 4200 nM | 111 nM | 51 nM | 38 µL/min/mg | 320 µM (≈ 147 µg/mL) | CCNS(=O)(=O)N1CC[C@H](Nc2nc(N[C@@H](CO)C3CC3)nc3c2ncn3C(F)F)C1 [Example 14, (S)-3-((2-(((R)-1-cyclopropyl-2-hydroxyethyl)amino)-9-(difluoromethyl)-9H-purin-6-yl)amino)-N-ethylpyrrolidine-1-sulfonamide] | –
19 nM | 663 nM | 7700 nM | 182 nM | > 30000 nM | 746 nM | 327 nM | 177 µL/min/mg | 39.2 µM (≈ 17.2 µg/mL) | CCn1cnc2c(N[C@H]3CCN(S(=O)(=O)C4CC4)C3)nc(N[C@@H](CO)C(C)C)nc21 [Example 41, (R)-2-((6-(((S)-1-(cyclopropylsulfonyl)pyrrolidin-3-yl)amino)-9-ethyl-9H-purin-2-yl)amino)-3-methylbutan-1-ol] | –
27 nM | 875 nM | 4500 nM | 310 nM | > 30000 nM | 925 nM | 428 nM | 196 µL/min/mg | 167 µM (≈ 76.1 µg/mL) | CCn1cnc2c(N[C@H]3CCN(S(=O)(=O)CCOC)C3)nc(N[C@@H](CO)C(C)C)nc21 [Example 42, (R)-2-((9-ethyl-6-(((S)-1-((2-methoxyethyl)sulfonyl)pyrrolidin-3-yl)-amino)-9H-purin-2-yl)amino)-3-methylbutan-1-ol] | –
39 nM | 651 nM | 8100 nM | 435 nM | 11400 nM | 960 nM | 496 nM | 15.2 µL/min/mg | 101 µM (≈ 44.7 µg/mL) | CCNS(=O)(=O)N1C[C@@H](F)[C@H](Nc2nc(N[C@@H](CO)C3CC3)nc3c2ncn3C)C1 (relative stereo) [Example 26, (3R*,4R*)-3-((2-(((R)-1-cyclopropyl-2-hydroxyethyl)amino)-9-methyl-9H-purin-6-yl)amino)-N-ethyl-4-fluoropyrrolidine-1-sulfonamide] | –
